Measured values reported in the NIST ThermoML archive (doi:10.1021/je400178k).

Experiment: molar heat capacity at constant pressure; xn = mol fraction of the nth substance listed
Conditions: 101 kPa, Liquid, Small sample (50 mg) DSC

NCCCN1CCOCC1 [N-(3-aminopropyl)morpholine] + O
molar heat capacity at constant pressure [J/K/mol]
Conditions | x1 = 0.0999 | x1 = 0.2 | x1 = 0.2921 | x1 = 0.3916 | x1 = 0.4896 | x1 = 0.6011 | x1 = 0.6947 | x1 = 0.7952 | x1 = 0.8939 | x1 = 1
298.15 K | 108.4 | 136.2 | 160.1 | 183.1 | 203.5 | 224.3 | 242.5 | 261.6 | 278.9 | 296.2
303.15 K | 109.3 | 137.2 | 161.5 | 184.9 | 205.1 | 226.3 | 244.5 | 263.6 | 281 | 298.2
308.15 K | 110.3 | 138.2 | 162.6 | 186.4 | 206.8 | 227.8 | 246.1 | 265.1 | 282.5 | 299.6
313.15 K | 111.3 | 139.5 | 164 | 188.1 | 208.5 | 229.5 | 247.7 | 266.7 | 284 | 301.2
318.15 K | 112.3 | 140.9 | 165.6 | 189.9 | 210.3 | 231.2 | 249.4 | 268.4 | 285.8 | 302.8
323.15 K | 113.1 | 142.3 | 167.2 | 191.3 | 211.7 | 232.9 | 251.1 | 270.1 | 287.5 | 304.5
328.15 K | 114 | 143.7 | 168.6 | 192.9 | 213.2 | 234.4 | 252.6 | 271.6 | 289.1 | 306.1
333.15 K | 114.9 | 145.3 | 170.3 | 194.5 | 214.8 | 236 | 254.3 | 273.4 | 290.9 | 307.9
338.15 K | 115.9 | 146.8 | 171.9 | 196.2 | 216.5 | 237.7 | 256 | 275 | 292.5 | 309.6
343.15 K | 116.8 | 148.2 | 173.8 | 197.6 | 218.1 | 239.5 | 257.6 | 276.5 | 294.2 | 311.3
348.15 K | 117.8 | 149.7 | 175.5 | 199.3 | 219.7 | 240.9 | 259.1 | 277.9 | 295.6 | 312.7
353.15 K | 118.9 | 151.1 | 177.2 | 201.6 | 221.1 | 242.1 | 260.2 | 278.7 | 296.3 | 313.4

CN1CCNCC1 [N-methylpiperazine] + O
molar heat capacity at constant pressure [J/K/mol]
Conditions | x1 = 0.099 | x1 = 0.1998 | x1 = 0.2995 | x1 = 0.4009 | x1 = 0.4983 | x1 = 0.6007 | x1 = 0.6994 | x1 = 0.7992 | x1 = 0.8992 | x1 = 1
298.15 K | 99.4 | 116 | 128.8 | 141.4 | 153.8 | 166.6 | 179 | 191.4 | 203.6 | 213.9
303.15 K | 100.6 | 117.3 | 130.4 | 143.3 | 155.6 | 168.2 | 180.5 | 192.7 | 204.7 | 214.4
308.15 K | 101.6 | 118.6 | 131.9 | 144.8 | 157.1 | 169.7 | 182 | 194.3 | 205.8 | 215
313.15 K | 102.7 | 119.9 | 133.4 | 146.4 | 158.6 | 171.3 | 183.4 | 195.4 | 206.8 | 215.7
318.15 K | 103.7 | 120.8 | 134.6 | 147.7 | 159.8 | 172.7 | 184.7 | 196.7 | 207.8 | 216.4
323.15 K | 104.6 | 122.1 | 136.2 | 149.3 | 161.4 | 174 | 185.7 | 197.5 | 208.5 | 216.9
328.15 K | 105.6 | 123.5 | 137.8 | 151.1 | 163 | 175.3 | 186.9 | 198.5 | 209.2 | 217.3
333.15 K | 106.1 | 124.8 | 139.4 | 153.3 | 165.5 | 177.3 | 188.2 | 198.9 | 209.3 | 217.2
338.15 K | 106.6 | 126.1 | 140.9 | 154.4 | 166.8 | 178.4 | 189 | 198.5 | 208.2 | 215.5
343.15 K | 107.3 | 127.3 | 142.4 | 156 | 168.2 | 179.8 | 190.6 | 200.1 | 209.2 | 216.2
348.15 K | 108.2 | 128.5 | 143.8 | 157.6 | 170 | 181.6 | 192.4 | 202.3 | 211.4 | 217.6
353.15 K | 109 | 129.7 | 145.2 | 159.2 | 171.5 | 183 | 193.8 | 203.7 | 212.7 | 218
